In the test the target is T1, HiBiT tagged PARP14 (Homo sapiens, UniProt Q460N5).
T1 construct: engineered to contain a HiBiT tag on both alleles of the PARP14 gene; endogenous in cells; host or cells: Jurkat cells stably transfected with LgBiT (Promega), PARP14 locus edited by CRISPR/Cas9
Description: HiBiT assay for the degradation of PARP14 (HiBiT tagged PARP14 in LgBiT expressing Jurkat cells, 2 or 24 hours). Particulars: Assay B (Example B): HiBiT tagged PARP14 degradation in LgBiT expressing Jurkat cells, read-out: DC50. It is filed as cell-based. A digest of the protocol: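 Jurkat cells stably expressing LgBiT with CRISPR knock-in of C-terminal HiBiT on both PARP14 alleles, 5,000 cells/well, treated with compound dose-response at 37 °C for 2 or 24 h. Live Cell Substrate luminescence normalised to 0.1% DMSO wells; DC50 from 4-parameter fit with floating top, bottom, Hill.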

Where only a bound is given, the exact number is not on record here.

T1 sequence (Q460N5 whole entry): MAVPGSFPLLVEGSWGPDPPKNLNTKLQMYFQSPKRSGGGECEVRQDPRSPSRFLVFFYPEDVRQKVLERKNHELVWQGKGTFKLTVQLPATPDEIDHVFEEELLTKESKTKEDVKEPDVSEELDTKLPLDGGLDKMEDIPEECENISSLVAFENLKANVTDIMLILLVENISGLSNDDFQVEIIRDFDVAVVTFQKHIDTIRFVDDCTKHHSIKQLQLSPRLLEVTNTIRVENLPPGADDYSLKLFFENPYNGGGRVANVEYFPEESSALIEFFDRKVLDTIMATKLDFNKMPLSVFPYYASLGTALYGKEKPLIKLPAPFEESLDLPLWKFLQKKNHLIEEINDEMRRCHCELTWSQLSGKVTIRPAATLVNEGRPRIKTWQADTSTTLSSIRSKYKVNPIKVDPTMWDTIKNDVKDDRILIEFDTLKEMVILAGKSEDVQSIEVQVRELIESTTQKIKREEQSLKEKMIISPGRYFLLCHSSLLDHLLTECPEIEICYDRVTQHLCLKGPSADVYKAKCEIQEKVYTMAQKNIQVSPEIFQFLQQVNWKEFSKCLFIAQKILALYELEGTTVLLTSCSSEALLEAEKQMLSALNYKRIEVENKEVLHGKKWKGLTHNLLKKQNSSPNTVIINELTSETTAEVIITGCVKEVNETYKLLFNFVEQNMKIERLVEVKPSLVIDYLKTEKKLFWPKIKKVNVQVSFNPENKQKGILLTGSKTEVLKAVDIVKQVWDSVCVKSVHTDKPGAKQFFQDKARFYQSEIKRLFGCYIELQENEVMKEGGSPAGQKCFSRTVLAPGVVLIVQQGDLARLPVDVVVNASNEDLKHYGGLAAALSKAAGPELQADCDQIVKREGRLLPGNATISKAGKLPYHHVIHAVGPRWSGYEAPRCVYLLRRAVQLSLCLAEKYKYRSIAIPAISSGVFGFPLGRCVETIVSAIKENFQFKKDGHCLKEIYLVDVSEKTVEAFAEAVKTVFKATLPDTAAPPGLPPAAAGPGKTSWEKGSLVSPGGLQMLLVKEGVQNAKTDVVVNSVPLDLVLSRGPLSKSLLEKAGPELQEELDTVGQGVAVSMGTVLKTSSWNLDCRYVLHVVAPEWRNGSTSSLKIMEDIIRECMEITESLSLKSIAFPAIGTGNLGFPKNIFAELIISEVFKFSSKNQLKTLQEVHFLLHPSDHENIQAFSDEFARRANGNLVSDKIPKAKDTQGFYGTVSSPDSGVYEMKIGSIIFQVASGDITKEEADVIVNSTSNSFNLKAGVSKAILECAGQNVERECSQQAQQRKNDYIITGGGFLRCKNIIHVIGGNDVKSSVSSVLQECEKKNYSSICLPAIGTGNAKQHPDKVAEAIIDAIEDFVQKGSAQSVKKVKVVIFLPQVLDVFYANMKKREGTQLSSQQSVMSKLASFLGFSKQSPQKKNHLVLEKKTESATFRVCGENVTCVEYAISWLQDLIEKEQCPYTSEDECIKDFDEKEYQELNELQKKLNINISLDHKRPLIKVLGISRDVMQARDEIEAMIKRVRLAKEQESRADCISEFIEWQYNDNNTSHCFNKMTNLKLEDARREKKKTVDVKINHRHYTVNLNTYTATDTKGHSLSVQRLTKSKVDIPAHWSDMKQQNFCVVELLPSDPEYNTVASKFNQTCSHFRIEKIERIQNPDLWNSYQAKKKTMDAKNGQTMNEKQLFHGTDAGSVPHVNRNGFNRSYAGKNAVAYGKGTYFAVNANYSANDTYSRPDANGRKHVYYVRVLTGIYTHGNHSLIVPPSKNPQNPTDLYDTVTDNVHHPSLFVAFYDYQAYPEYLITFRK

The term DC50 denotes the concentration giving 50% degradation. Take `Cn1nc(N2CCC(=O)NC2=O)c2ccc(C3CCN(CCOc4cc(F)c5c(=O)[nH]c(CSC6CCOCC6)nc5c4)CC3)cc21` [Example 186, 1-(6-(1-(2-((5-fluoro-4-oxo-2-(((tetrahydro-2H-pyran-4-yl)thio)methyl)-3,4-dihydroquinazolin-7-yl)oxy)ethyl)piperidin-4-yl)-1-methyl-1H-indazol-3-yl)dihydropyrimidine-2,4(1H,3H)-dione]: the DC50 is < 30 nM.

On to `Cn1nc(N2CCC(=O)NC2=O)c2ccc(C3CCN(C4CCN(CCOc5cc(F)c6c(=O)[nH]c(CSC7CCOCC7)nc6c5)CC4)CC3)cc21` [Example 187, 1-(6-(1′-(2-((5-fluoro-4-oxo-2-(((tetrahydro-2H-pyran-4-yl)thio)methyl)-3,4-dihydroquinazolin-7-yl)oxy)ethyl)-[1,4′-bipiperidin]-4-yl)-1-methyl-1H-indazol-3-yl)dihydropyrimidine-2,4(1H,3H)-dione diformate], for which the DC50 is < 30 nM.

As for `O=C1CCC(Nc2ccc(C(=O)N3CCN(CCN4CCC(COc5cc(F)c6c(=O)[nH]c(CSC7CCOCC7)nc6c5)CC4)CC3)cc2)C(=O)N1` (centres unmarked) [Example 188, 3-((4-(4-(2-(4-(((5-fluoro-4-oxo-2-(((tetrahydro-2H-pyran-4-yl)thio)methyl)-3,4-dihydroquinazolin-7-yl)oxy)methyl)piperidin-1-yl)ethyl)piperazine-1-carbonyl)phenyl)amino)piperidine-2,6-dione], the 50% degradation concentration (DC50) is < 30 nM.

As for `O=C1CCC(Nc2ccc(N3CCN(C(=O)CN4CCC(COc5cc(F)c6c(=O)[nH]c(CSC7CCOCC7)nc6c5)CC4)CC3)c(F)c2)C(=O)N1` (centres unmarked) [Example 189, 3-((3-fluoro-4-(4-(2-(4-(((5-fluoro-4-oxo-2-(((tetrahydro-2H-pyran-4-yl)thio)methyl)-3,4-dihydroquinazolin-7-yl)oxy)methyl)piperidin-1-yl)acetyl)piperazin-1-yl)phenyl)amino)piperidine-2,6-dione], the DC50 was < 30 nM.

Turning to `O=C1CCC(N2C(=O)c3ccc(N4CCC(N5CCC(COc6cc(F)c7c(=O)[nH]c(CSC8CCOCC8)nc7c6)CC5)CC4)cc3C2=O)C(=O)N1` (centres unmarked) [Example 190, 2-(2,6-dioxopiperidin-3-yl)-5-(4-(((5-fluoro-4-oxo-2-(((tetrahydro-2H-pyran-4-yl)thio)methyl)-3,4-dihydroquinazolin-7-yl)oxy)methyl)-[1,4′-bipiperidin]-1′-yl)isoindoline-1,3-dione], the DC50 was < 30 nM.

Take `O=C1CCC(N2C(=O)c3ccc(N4CCC(N5CC(N6CCC(COc7cc(F)c8c(=O)[nH]c(CSC9CCOCC9)nc8c7)CC6)C5)CC4)cc3C2=O)C(=O)N1` (centres unmarked) [Example 191, 2-(2,6-dioxopiperidin-3-yl)-5-(4-(3-(4-(((5-fluoro-4-oxo-2-(((tetrahydro-2H-pyran-4-yl)thio)methyl)-3,4-dihydroquinazolin-7-yl)oxy)methyl)piperidin-1-yl)azetidin-1-yl)piperidin-1-yl)isoindoline-1,3-dione]: the half-maximal degradation concentration (DC50) is < 30 nM.

In the case of `O=C1CCC(Nc2ccc(N3CCN(CCN4CCC(COc5cc(F)c6c(=O)[nH]c(COC7CCOCC7)nc6c5)CC4)CC3)cc2F)C(=O)N1` (centres unmarked) [Example 192, 3-((2-fluoro-4-(4-(2-(4-(((5-fluoro-4-oxo-2-(((tetrahydro-2H-pyran-4-yl)oxy)methyl)-3,4-dihydroquinazolin-7-yl)oxy)methyl)piperidin-1-yl)ethyl)piperazin-1-yl)phenyl)amino)piperidine-2,6-dione diformate], the DC50 was < 30 nM.

Turning to `O=C1CCC(Nc2ccc(N3CCN(CCN4CC(COc5cc(F)c6c(=O)[nH]c(CSC7CCOCC7)nc6c5)C4)CC3)c(F)c2)C(=O)N1` (centres unmarked) [Example 193, 3-((3-fluoro-4-(4-(2-(3-(((5-fluoro-4-oxo-2-(((tetrahydro-2H-pyran-4-yl)thio)methyl)-3,4-dihydroquinazolin-7-yl)oxy)methyl)azetidin-1-yl)ethyl)piperazin-1-yl)phenyl)amino)piperidine-2,6-dione], the DC50 is < 30 nM.

As to `O=C1CCC(Nc2ccc(N3CCN(CCN4CCC(COc5cc(F)c6c(=O)[nH]c(CSC7CCCCC7)nc6c5)CC4)CC3)c(F)c2)C(=O)N1` (centres unmarked) [Example 194, 3-({4-[4-(2-{4-[({2-[(cyclohexylsulfanyl)methyl]-5-fluoro-4-oxo-3H-quinazolin-7-yl}oxy)methyl]piperidin-1-yl}ethyl)piperazin-1-yl]-3-fluorophenyl}amino)piperidine-2,6-dione], the DC50 was < 30 nM.

For `Cn1nc(C2CCC(=O)NC2=O)c2cc(F)c(C3CCN(CCN4CCC(COc5cc(F)c6c(=O)[nH]c(CSC7CCOCC7)nc6c5)CC4)CC3)cc21` (centres unmarked) [Example 195, 3-(5-fluoro-6-(1-(2-(4-(((5-fluoro-4-oxo-2-(((tetrahydro-2H-pyran-4-yl)thio)methyl)-3,4-dihydroquinazolin-7-yl)oxy)methyl)piperidin-1-yl)ethyl)piperidin-4-yl)-1-methyl-1H-indazol-3-yl)piperidine-2,6-dione], the DC50 was < 30 nM.

For `O=C1CCN(c2ccc(N3CCN(CCN4CCC(COc5cc(F)c6c(=O)[nH]c(CSC7CCOCC7)nc6c5)CC4)CC3)c(F)c2)C(=O)N1` [Example 196, 1-(3-fluoro-4-(4-(2-(4-(((5-fluoro-4-oxo-2-(((tetrahydro-2H-pyran-4-yl)thio)methyl)-3,4-dihydroquinazolin-7-yl)oxy)methyl)piperidin-1-yl)ethyl)piperazin-1-yl)phenyl)dihydropyrimidine-2,4(1H,3H)-dione], the DC50 is < 30 nM.

On to `O=C1CCN(c2ccc(N3CCN(CCN4CCC(COc5cc(F)c6c(=O)[nH]c(COC7CCOCC7)nc6c5)CC4)CC3)c(F)c2)C(=O)N1` [Example 197, 1-(3-fluoro-4-(4-(2-(4-(((5-fluoro-4-oxo-2-(((tetrahydro-2H-pyran-4-yl)oxy)methyl)-3,4-dihydroquinazolin-7-yl)oxy)methyl)piperidin-1-yl)ethyl)piperazin-1-yl)phenyl)dihydropyrimidine-2,4(1H,3H)-dione], for which the DC50 is < 30 nM.

Turning to `Cn1nc(N2CCC(=O)NC2=O)c2cc(F)c(C3CCN(CCN4CCC(COc5cc(F)c6c(=O)[nH]c(COC7CCOCC7)nc6c5)CC4)CC3)cc21` [Example 198, 1-(5-fluoro-6-(1-(2-(4-(((5-fluoro-4-oxo-2-(((tetrahydro-2H-pyran-4-yl)oxy)methyl)-3,4-dihydroquinazolin-7-yl)oxy)methyl)piperidin-1-yl)ethyl)piperidin-4-yl)-1-methyl-1H-indazol-3-yl)dihydropyrimidine-2,4(1H,3H)-dione], the DC50 was < 30 nM.

Take `O=C1CCC(Nc2ccc(NC(=O)[C@H]3CCN(CCN4CCC(COc5cc(F)c6c(=O)[nH]c(COC7CCOCC7)nc6c5)CC4)C3)c(F)c2)C(=O)N1` (stereo partly drawn) [Example 199, (3S)-N-(4-((2,6-dioxopiperidin-3-yl)amino)-2-fluorophenyl)-1-(2-(4-(((5-fluoro-4-oxo-2-(((tetrahydro-2H-pyran-4-yl)oxy)methyl)-3,4-dihydroquinazolin-7-yl)oxy)methyl)piperidin-1-yl)ethyl)pyrrolidine-3-carboxamide]: the half-maximal degradation concentration (DC50) is < 30 nM.

Values taken from patent publication US20240101540A1, “TARGETED PROTEIN DEGRADATION OF PARP14 FOR USE IN THERAPY” (Ribon Therapeutics, Inc., priority 2022, published 2024).
